According to patent US10167285B2, “Small-molecule HSP90 inhibitors” (Memorial Sloan Kettering Cancer Center, priority 2005, dated 2019):
“And” between values parts separate entries of the source, which are not always exact repeats. Identical values can stand only once. Like-named read-outs stand apart in the source and are kept apart here.

How the values were obtained:
MDA-MB-468 cells = experiment: Anti-mitotic assay (Tg-3 microtiter immunoassay); assay type: cell-based, human; details: 24 h, concentration dependent increase in Tg-3 luminescence
Protocol: Anti-mitotic assay. Black, clear-bottom microtiter 96-well plates (Corning Costar #3603) were used to accommodate experimental cultures. MDA-MB-468 cells were seeded in each well at 8,000 cells per well in growth medium (100 μL), and allowed to attach overnight at 37° C. and 5% CO2. Growth medium (100 μL) with drug or vehicle (DMSO) was gently added to the wells, and the plates were incubated at 37° C. and 5% CO2 for 24 h. Wells were washed with ice-cold TBST (2×200 μL). A house vacuum source attached to an eight-channel aspirator was used to remove the liquid from the 96-well plates. Ice-cold methanol (100 μL) was added to each well, and the plate was placed at 4° C. for 5 min. Methanol was removed by suction and plates were washed with ice-cold TBST (2×200 μL). Plates were further incubated with SuperBlock® blocking buffer (Pierce #37535) (200 μL) for 2 h at RT. The Tg-3 antibody (gift of Dr. Davies, Albert Einstein College of Medicine) diluted 1:200 in SuperBlock® was placed in each well (100 μL) except the control column that was treated with control antibody (Mouse IgM, NeoMarkers, NC-1030-P). After 72 h, wells were washed with ice-cold TBST (2×200 μL). […] Un-reacted antibody was removed by washing the plates with ice-cold TBST (3×200 μL) for 5 min on a shaker. The ECLTM Western Blotting Detection Reagents 1 and 2 in 1:1 mix (100 μL) was placed in each well and the plates were read immediately in an Analyst AD plate reader (Molecular Devices). Luminescence readings were imported into SOFTmax PROR 4.3.1. Anti-mitotic activity was defined as a concentration dependent increase in luminescence readings in compound-treated wells as compared to DMSO only treated wells.

Her2 = Her2 assay (microtiter immunoassay of Her2 degradation); assay type: cell-based, human
Protocol: Her2 assay. SKBr3 cells were plated in black, clear-bottom microtiter plates (Corning #3603) at 3,000 cells/well in growth medium (100 μl) and allowed to attach for 24 h at 37° C. and 5% CO2. Growth medium (100 μl) with drug or vehicle (DMSO) was carefully added to the wells, and the plates were placed at 37° C. and 5% CO2. Following 24 h incubation with drugs, wells were washed with ice-cold Tris buffer saline (TBS) containing 0.1% Tween 20 (TBST) (200 μl). A house vacuum source attached to an eight-channel aspirator was used to remove the liquid from the plates. Further, methanol (100 μl at −20° C.) was added to each well, and the plate was placed at 4° C. for 10 min. Methanol was removed by washing with TBST (2×200 μl). After further incubation at RT for 2 h with SuperBlockR (Pierce 37535) (200 μl), anti-Her-2 (c-erbB-2) antibody (Zymed Laboratories #28-004) (100 μl, 1:200 in SuperBlockR) was placed in each well. The plate was incubated overnight at 4° C. For control wells, 1:200 dilution of a normal rabbit IgG (Santa Cruz #SC-2027) in SuperblockR was used. Each well was washed with TBST (2×200 μl) and incubated at RT for 2 h with an anti-rabbit HRP-linked antibody (Sigma, A-0545) (100 μl, 1:2000 in SuperBlockR). Unreacted antibody was removed by washing with TBST (3×200 μl), and the ECLTM Western blotting reagent (Amersham #RPN2106) (100 μL) was added. The plate was immediately read in an Analyst AD plate reader (Molecular Devices). Each well was scanned for 0.1 s. Readings from wells containing only control IgG and the corresponding HRP-linked secondary antibody were set as background and deducted from all measured values.

recombinant Hsp90α = recombinant Hsp90α (Homo sapiens (Human), UniProt P07900); experiment: Hsp90 competition assay (fluorescence polarization), recombinant protein; assay type: binding; details: average of 3 measurements, displacement of fluorescent GM
Protocol: Hsp90 competition assay. Fluorescence polarization measurements were performed on an Analyst AD instrument (Molecular Devices, Sunnyvale, Calif.). […] The assay buffer (HFB) contained 20 mM HEPES (K) pH 7.3, 50 mM KCl, 5 mM MgCl2, 20 mM Na2MoO4, 0.01% NP40. Before each use, 0.1 mg/mL bovine gamma globulin (BGG) (Panvera Corporation, Madison, Wis.) and 2 mM DTT (Fisher Biotech, Fair Lawn, N.J.) were freshly added. GM-BODIPY was synthesized as previously reported^23a and was dissolved in DMSO to form 10 μM solutions.

[1] = system: SKBr3 breast cancer cells; experiment: Growth inhibition, sulforhodamine B assay; assay type: cell-based, human; details: average of 3 measurements
Protocol: (§1) Cell culture. The human breast cancer cell lines SKBr3 and MDA-MB-468 were a gift from Dr. Neal Rosen (MSKCC). Cells were maintained in 1:1 mixture of DME:F12 supplemented with 2 mM glutamine, 50 units/mL penicillin, 50 […] and 10% heat inactivated fetal bovine serum (Gemini Bioproducts #100-10b) and incubated at 37° C., 5% CO2. Growth assays. Growth inhibition studies were performed using the sulforhodamine B assay as previously described.^29 In summary, experimental cultures were plated in microtiter plates (Nunc #167008). One column of wells was left without cells to serve as the blank control. Cells were allowed to attach overnight. The following day, growth medium having either drug or DMSO at twice the desired initial concentration was added to the plate in triplicate and was serially diluted at a 1:1 ratio in the microtiter plate. After 72 h of growth, the cell number in treated versus control wells was estimated after treatment with 50% trichloroacetic acid and staining with 0.4% sulforhodamine B in 1% acetic acid. […] Normal human renal proximal tubular epithelial (RPTEC) cells were purchased pre-seeded in 96-well plates (Clonetics, CC-3190). Upon receipt, cells were placed in a humidified incubator at 37° C., 5% CO2 and allowed to equilibrate for 3 h. Media was removed by suction and replaced with fresh media provided by the manufacturer. Cells were then treated with either drugs or DMSO for 72 h and the IC50 values were determined as described above.

[2] = Tumor and plasma concentration in MDA-MB-468 xenografted mice; assay type: in vivo; details: 24 hours after intraperitoneal injection
Protocol: (§2) Mice xenografted with MDA-MB-468 human breast cancer tumors were treated by intraperitoneal injection with Compound 5 at a dosage levels of 25, 50, 75, 100 and 150 mg/kg. The concentration of Compound 5 in the tumor 24 hours after administration was determined. […] Compound 5 was further tested for its effects on the pharmacodynamic marker Raf-1 kinase. Hsp90 stabilizes this kinase and maintains it in ready-to-be-activated conformation. Inhibition of Hsp90 leads to disruption of the complex and further ubiquitinylation and degradation of Raf-1 by the proteasome. Thus, Raf-1 degradation in tumors is a functional read-out of Hsp90 inhibition.

Raf-1 kinase = experiment: Raf-1 protein levels in MDA-MB-468 tumors; assay type: in vivo, mice; details: all dosage levels, FIG. 10B
Protocol: as §2

PI3 kinase = PI3 kinase expression in MDA-MB-468 tumors; assay type: in vivo, mice; details: protein unaffected by Hsp90 inhibitors
Hsp90 lung = experiment: Hsp90 competition assay, lung homogenate; details: for Lung/SKBr3: ratio of EC50 Hsp90 values; for EC50: read-out: EC50 Hsp90 lung, normal tissue
Protocol: (§3) Hsp90 competition assay. Fluorescence polarization measurements were performed on an Analyst AD instrument (Molecular Devices, Sunnyvale, Calif.). […] The assay buffer (HFB) contained 20 mM HEPES (K) pH 7.3, 50 mM KCl, 5 mM MgCl2, 20 mM Na2MoO4, 0.01% NP40. Before each use, 0.1 mg/mL bovine gamma globulin (BGG) (Panvera Corporation, Madison, Wis.) and 2 mM DTT (Fisher Biotech, Fair Lawn, N.J.) were freshly added. […] Cell lysates were prepared rupturing cellular membranes by freezing at −70° C. and dissolving the cellular extract in HFB with added protease and phosphotase inhibitors. Organs were harvested from a healthy mouse and homogenized in HFB. Saturation curves were recorded in which GM-BODIPY (5 nM) was treated with increasing amounts of cellular lysates.

Hsp90 heart = experiment: Hsp90 competition assay, heart homogenate; details: for Heart/SKBr3: ratio of EC50 Hsp90 values; for EC50: read-out: EC50 Hsp90 heart, normal tissue
Protocol: as §3

Hsp90 SKBr3 = experiment: Hsp90 competition assay, SKBr3 cell lysate; details: read-out: EC50 Hsp90 SKBr3
Protocol: Hsp90 competition assay. Fluorescence polarization measurements were performed on an Analyst AD instrument (Molecular Devices, Sunnyvale, Calif.). […] The assay buffer (HFB) contained 20 mM HEPES (K) pH 7.3, 50 mM KCl, 5 mM MgCl2, 20 mM Na2MoO4, 0.01% NP40. Before each use, 0.1 mg/mL bovine gamma globulin (BGG) (Panvera Corporation, Madison, Wis.) and 2 mM DTT (Fisher Biotech, Fair Lawn, N.J.) were freshly added. GM-BODIPY was synthesized as previously reported^23a and was dissolved in DMSO to form 10 μM solutions. Recombinant Hsp90α was purchased from Stressgen Bioreagents (cat. No. SPP-776), (Victoria, Canada). Cell lysates were prepared rupturing cellular membranes by freezing at −70° C. and dissolving the cellular extract in HFB with added protease and phosphotase inhibitors. […] Saturation curves were recorded in which GM-BODIPY (5 nM) was treated with increasing amounts of cellular lysates.

Solubility in PBS = assay type: physicochemical; details: aqueous buffer, acid addition salt form
Protocol: Growth over 96 h was assessed.

[3] = system: renal proximal tubular epithelial cells (RPTEC); experiment: Growth inhibition of normal RPTEC cells; assay type: cell-based, human; details: for IC50: 72 h, read-out: IC50 RPTEC
Protocol: as §1

Hsp90 Brain = experiment: Hsp90 competition assay, brain homogenate; assay type: binding, mouse; details: for EC50: normal tissue; for Brain/SKBr3: ratio of EC50 Hsp90 values
Protocol: as §3

SCLC cell lines = experiment: Cell death and apoptosis across the SCLC cell lines; assay type: cell-based; details: each of the SCLC cell lines, FIGS. 6A and B
[4] = Her2 degradation in SKBr3 cells, 24 h; average of 3 measurements
[5] = Homo sapiens, SK-BR-3; Her2 degradation in SKBr3 cells, 24 h; average of 3 measurements

EC50 (recombinant Hsp90α; read-out: EC50 Hsp90-α) | IC50 ([1]; Homo sapiens, SK-BR-3, 72 h) | Molecule | Anti-mitotic (MDA-MB-468 cells) | IC50 (Her2; [5]) | further results
5 ± 1.1 µM |  | COc1cc(Sc2nc3c(N)ncnc3n2CCOC(C)C)c(Cl)cc1Cl [Example 3, 9-(2-Isopropoxy-ethyl)-8-(2,4-dichloro-5-methoxy-benzenesulfanyl)adenine] | No |  | IC50 (Her2; [4]): 58.3 ± 2.2 µM; IC50 ([1]; 72 h): 16.1 ± 0.7 µM
0.0223 ± 0.002 µM | 0.09 ± 0.03 µM | C#CCCCn1c(Cc2cc3c(cc2I)OCO3)nc2c(N)nc(F)nc21 [Example 11, 2-Fluoro-8-(6-iodo-benzo[1,3]dioxol-5-ylmethyl)-9-(pent-4-ynyl)adenine] | Yes | 0.09 ± 0.01 µM | 
4.6 ± 0.02 µM | 20.6 ± 6.7 µM | C#CCCCn1c(Cc2cc(OC)c(OC)cc2Cl)nc2c(N)nc(F)nc21 [Example 14, 2-Fluoro-8-(2-chloro-4,5-dimethoxy-benzyl)-9-(pent-4-ynyl)adenine] | No | 30 ± 1 µM | 
 | 0.142 ± 0.022 µM | CC(C)NCCCn1c(Sc2cc3c(cc2Br)OCO3)nc2c(N)ncnc21 [Example 5, 8-(6-Bromo-benzo[1,3]dioxol-5-ylsulfanyl)-9-(3-isopropylamino-propyl)adenine] | Yes |  | detection in plasma [2]: could not be detected; Raf-1 levels (% control) (Raf-1 kinase): substantial decrease; expression of PI3 kinase (PI3 kinase): no change in expression
> 15 µM | 55 ± 2.3 µM | C#CCCCn1c(Cc2cc(OC)c(OC)cc2Br)nc2c(N)nc(F)nc21 [Example 13, 2-Fluoro-8-(2-bromo-4,5-dimethoxy-benzyl)-9-(pent-4-ynyl)adenine] | No | > 50 µM | 
0.0565 ± 0.002 µM | 0.215 ± 0.055 µM | C#CCCCn1c(Cc2cc3c(cc2Br)OCO3)nc2c(N)nc(F)nc21 [Example 6, 2-Fluoro-8-(6-bromo-benzo[1,3]dioxol-5-ylmethyl)-9-(pent-4-ynyl)adenine] | Yes | 0.21 ± 0.01 µM | Lung/SKBr3 (Hsp90 lung): 134; EC50 (Hsp90 lung): 5.2 ± 0.21 µM; Heart/SKBr3 (Hsp90 heart): 343; EC50 (Hsp90 heart): 13.3 ± 0.21 µM; EC50 (Hsp90 SKBr3): 0.0388 ± 0.003 µM
0.0772 ± 0.001 µM | 0.25 ± 0.03 µM | C#CCCCn1c(Cc2cc3c(cc2Cl)OCO3)nc2c(N)nc(F)nc21 [Example 7, 2-Fluoro-8-(6-chloro-benzo[1,3]dioxol-5-ylmethyl)-9-(pent-4-ynyl)adenine] | Yes | 0.3 ± 0.015 µM | 
0.0504 ± 0.004 µM | 0.045 ± 0.006 µM | CC(C)NCCCn1c(Cc2cc3c(cc2I)OCO3)nc2c(N)nc(F)nc21 [Example 8, 2-Fluoro-8-(6-iodo-benzo[1,3]dioxol-5-ylmethyl)-9-(3-isopropylamino-propyl) adenine] | Yes | 0.08 ± 0.01 µM | solubility (Solubility in PBS): > 5 mM
 | 0.09 ± 0.002 µM | C#CCCCn1c(Sc2cc3c(cc2I)OCO3)nc2c(N)ncnc21 [Example 10, 8-(6-Iodo-benzo[1,3]dioxol-5-ylsulfanyl)-9-(pent-4-ynyl)adenine] | Yes | 0.1 ± 0.01 µM | Lung/SKBr3 (Hsp90 lung): 136; EC50 (Hsp90 lung): 2.2 ± 0.4 µM; Heart/SKBr3 (Hsp90 heart): 370; EC50 (Hsp90 heart): 6 ± 0.2 µM; EC50 (Hsp90 SKBr3): 0.0161 ± 0.001 µM
 |  | C#CCCCn1c(Sc2cc3c(cc2Br)OCO3)nc2c(N)ncnc21 [Example 1, 9-(Pent-4-ynyl)-8-(6-bromo-benzo[1,3]dioxol-5-ylsulfanyl)adenine] | Yes |  | Lung/SKBr3 (Hsp90 lung): 735; EC50 (Hsp90 lung): 14.7 ± 1.7 µM; Heart/SKBr3 (Hsp90 heart): 3265; EC50 (Hsp90 heart): 65.3 ± 9.9 µM; EC50 (Hsp90 SKBr3): 0.02 ± 0.06 µM; IC50 (Her2; [4]): 0.365 ± 0.045 µM; IC50 (Her2; Homo sapiens, SK-BR-3, 24 h, Her2 degradation in SKBr3 cells, average of 3 measurements): 0.3 ± 0.05 µM; IC50 ([3]; Homo sapiens, RPTEC): 4.1 ± 0.9 µM; EC50 (Hsp90 Brain): 40.2 ± 25.3 µM; Brain/SKBr3 (Hsp90 Brain): 2000; EC50 (recombinant Hsp90α; EC50 Hsp90-α): 0.03 µM and 0.0508 µM; induction of apoptosis (SCLC cell lines): induced apoptosis
> 15 µM | > 50 µM | C#CCCCn1c(Cc2cc(OC)c(OC)cc2I)nc2c(N)nc(F)nc21 [Example 12, 2-Fluoro-8-(2-iodo-4,5-dimethoxy-benzyl)-9-(pent-4-ynyl)adenine] | No | > 50 µM | 
 |  | 9-(Pent-4-ynyl)-8-(2,4,5-trichloro-phenylsulfanyl)adenine [Example 2] |  |  | EC50 (Hsp90 SKBr3): 0.09 ± 0.03 µM; IC50 ([3]; normal cells): 28.1 ± 2.2 µM; RPTEC/SKBr3 ([3]; ratio of growth IC50 values): 15.6; EC50 (Hsp90 Brain): 26.7 ± 7.7 µM; Brain/SKBr3 (Hsp90 Brain): 298

Molecule | EC50 (recombinant Hsp90α; read-out: EC50 Hsp90-α) | IC50 ([1]; Homo sapiens, SK-BR-3, 72 h) | Anti-mitotic (MDA-MB-468 cells) | IC50 (Her2; [5]) | further results
Nc1ncnc2nc(Sc3cc(Cl)c(Cl)cc3Cl)[nH]c12 [Example 4, 8-(2,4,5-Trichloro-phenylsulfanyl)adenine] | 15.4 ± 2.2 µM | 36 ± 0.2 µM | Yes | 47.8 ± 3.2 µM | 
C#CCCCn1c(Sc2cc(Cl)c(Cl)cc2Cl)nc2c(N)ncnc21 [Example 2, 9-(Pent-4-ynyl)-8-(2,4,5-trichloro-phenylsulfanyl)adenine] | 8.5 ± 0.1 µM | 48.4 ± 2.5 µM | No | 58 ± 1.4 µM | 
